Data from ChEMBL document CHEMBL1201862, “PubChem BioAssay data set” (2004).
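Grown in 96-well plates, cells were treated for 48 hours with each compound at five concentrations. Insufficient inhibition: endpoint recorded as highest concentration tested. GI50: concentration for 50% inhibition of growth.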 Calls of active or inactive are those of the source. No stated cut-off is given here; in the data, active = GI50 up to about 1.1 µM and inactive = higher.

Legend:
Experiment in all cases: DTP human tumour cell line panel, 48 h
HT-29 = tested on: HT-29
SK-MEL-28 = tested on: SK-MEL-28
Hs-578T = tested on: Hs-578T
786-0 = tested on: 786-0
BT-549 = tested on: BT-549
SK-MEL-2 = tested on: SK-MEL-2
PC-3 = tested on: PC-3
MCF7 = tested on: MCF7
IGROV-1 = tested on: IGROV-1
SNB-75 = tested on: SNB-75
HCT-15 = tested on: HCT-15
HL-60 = tested on: HL-60
NCI-H522 = tested on: NCI-H522
OVCAR-5 = tested on: OVCAR-5
NCI-H460 = tested on: NCI-H460
U-251 = tested on: U-251
KM12 = tested on: KM12
HCC 2998 = tested on: HCC 2998
TK-10 = tested on: TK-10
CAKI-1 = tested on: CAKI-1
EKVX = tested on: EKVX
SK-OV-3 = tested on: SK-OV-3
MDA-MB-231 = tested on: MDA-MB-231
NCI-H226 = tested on: NCI-H226
M14 = tested on: M14
SK-MEL-5 = tested on: SK-MEL-5
A549 = tested on: A549
SR = tested on: SR
HCT-116 = tested on: HCT-116
SF-268 = tested on: SF-268
SN12C = tested on: SN12C
RPMI-8226 = tested on: RPMI-8226
SF-295 = tested on: SF-295
K562 = tested on: K562
MDA-N = tested on: MDA-N
LOX IMVI = tested on: LOX IMVI
HOP-92 = tested on: HOP-92
NCI-H23 = tested on: NCI-H23
Malme-3M = tested on: Malme-3M
NCI/ADR-RES = tested on: NCI/ADR-RES
UACC-257 = tested on: UACC-257
UACC-62 = tested on: UACC-62
MDA-MB-435 = tested on: MDA-MB-435
DU-145 = tested on: DU-145
OVCAR-4 = tested on: OVCAR-4
T47D = tested on: T47D
HOP-62 = tested on: HOP-62
ACHN = tested on: ACHN
RXF 393 = tested on: RXF 393
OVCAR-8 = tested on: OVCAR-8
SNB-19 = tested on: SNB-19
UO-31 = tested on: UO-31
CCRF-CEM = tested on: CCRF-CEM
OVCAR-3 = tested on: OVCAR-3
COLO 205 = tested on: COLO 205
MOLT-4 = tested on: MOLT-4
SW-620 = tested on: SW-620
SF-539 = tested on: SF-539

**Q.** Which GI50 (HT-29) does the source give for `Oc1ccc2c3c1OC1c4[nH]ncc4C[C@H]4[C@@H](C2)N(CC2CC2)CC[C@]314` (stereo partly drawn) here?
**A.** > 100 µM (inactive)

**Q.** And the GI50 (SK-MEL-28)?
**A.** > 100 µM (inactive)

**Q.** What about the GI50 (Hs-578T) of the same molecule?
**A.** > 100 µM (inactive)

**Q.** And the GI50 (786-0)?
**A.** > 100 µM (inactive)

**Q.** What about the GI50 (BT-549) of the same molecule?
**A.** > 100 µM (inactive)

**Q.** And the GI50 (SK-MEL-2)?
**A.** > 100 µM (inactive)

**Q.** What about the GI50 (PC-3) of the same molecule?
**A.** > 100 µM (inactive)

**Q.** And the GI50 (MCF7)?
**A.** > 100 µM (inactive)

**Q.** What about the GI50 (IGROV-1) of the same molecule?
**A.** > 100 µM (inactive)

**Q.** What about the GI50 (SNB-75) of the same molecule?
**A.** 78.5 µM (inactive)

**Q.** What about the GI50 (HCT-15) of the same molecule?
**A.** > 100 µM

**Q.** And the GI50 (HL-60)?
**A.** > 100 µM (inactive)

**Q.** And the GI50 (NCI-H522)?
**A.** > 100 µM (inactive)

**Q.** What about the GI50 (OVCAR-5) of the same molecule?
**A.** > 100 µM (inactive)

**Q.** What about the GI50 (NCI-H460) of the same molecule?
**A.** > 100 µM (inactive)

**Q.** What about the GI50 (U-251) of the same molecule?
**A.** > 100 µM (inactive)

**Q.** And the GI50 (KM12)?
**A.** > 100 µM (inactive)

**Q.** What about the GI50 (HCC 2998) of the same molecule?
**A.** > 100 µM (inactive)

**Q.** What about the GI50 (TK-10) of the same molecule?
**A.** > 100 µM (inactive)

**Q.** What about the GI50 (CAKI-1) of the same molecule?
**A.** > 100 µM (inactive)

**Q.** What about the GI50 (EKVX) of the same molecule?
**A.** > 100 µM (inactive)

**Q.** And the GI50 (SK-OV-3)?
**A.** > 100 µM (inactive)

**Q.** What about the GI50 (MDA-MB-231) of the same molecule?
**A.** > 100 µM (inactive)

**Q.** And the GI50 (NCI-H226)?
**A.** > 100 µM (inactive)

**Q.** What about the GI50 (M14) of the same molecule?
**A.** > 100 µM (inactive)

**Q.** And the GI50 (SK-MEL-5)?
**A.** > 100 µM (inactive)

**Q.** And the GI50 (A549)?
**A.** > 100 µM (inactive)

**Q.** What about the GI50 (SR) of the same molecule?
**A.** > 100 µM (inactive)

**Q.** What about the GI50 (HCT-116) of the same molecule?
**A.** > 100 µM (inactive)

**Q.** And the GI50 (SF-268)?
**A.** > 100 µM (inactive)

**Q.** And the GI50 (SN12C)?
**A.** > 100 µM (inactive)

**Q.** What about the GI50 (RPMI-8226) of the same molecule?
**A.** > 100 µM (inactive)

**Q.** What about the GI50 (SF-295) of the same molecule?
**A.** > 100 µM (inactive)

**Q.** What about the GI50 (K562) of the same molecule?
**A.** 99.5 µM (inactive)

**Q.** What about the GI50 (MDA-N) of the same molecule?
**A.** > 100 µM (inactive)

**Q.** And the GI50 (LOX IMVI)?
**A.** > 100 µM (inactive)

**Q.** What about the GI50 (HOP-92) of the same molecule?
**A.** > 100 µM (inactive)

**Q.** And the GI50 (NCI-H23)?
**A.** > 100 µM (inactive)

**Q.** And the GI50 (Malme-3M)?
**A.** > 100 µM (inactive)

**Q.** And the GI50 (NCI/ADR-RES)?
**A.** > 100 µM (inactive)

**Q.** And the GI50 (UACC-257)?
**A.** > 100 µM (inactive)

**Q.** And the GI50 (UACC-62)?
**A.** > 100 µM (inactive)

**Q.** And the GI50 (MDA-MB-435)?
**A.** > 100 µM (inactive)

**Q.** What about the GI50 (DU-145) of the same molecule?
**A.** > 100 µM (inactive)

**Q.** And the GI50 (OVCAR-4)?
**A.** > 100 µM (inactive)

**Q.** What about the GI50 (T47D) of the same molecule?
**A.** > 100 µM (inactive)

**Q.** What about the GI50 (HOP-62) of the same molecule?
**A.** > 100 µM (inactive)

**Q.** And the GI50 (ACHN)?
**A.** > 100 µM (inactive)

**Q.** And the GI50 (RXF 393)?
**A.** > 100 µM (inactive)

**Q.** What about the GI50 (OVCAR-8) of the same molecule?
**A.** > 100 µM (inactive)

**Q.** And the GI50 (SNB-19)?
**A.** > 100 µM (inactive)

**Q.** What about the GI50 (UO-31) of the same molecule?
**A.** > 100 µM (inactive)

**Q.** And the GI50 (CCRF-CEM)?
**A.** > 100 µM (inactive)

**Q.** What about the GI50 (OVCAR-3) of the same molecule?
**A.** > 100 µM (inactive)

**Q.** And the GI50 (COLO 205)?
**A.** > 100 µM (inactive)

**Q.** And the GI50 (MOLT-4)?
**A.** > 100 µM (inactive)

**Q.** `O=C(Nc1ccc(Cl)c(Cl)c1)OCCN1c2ccccc2Sc2ccccc21` was tested. Which GI50 (HT-29) did it give?
**A.** > 10 µM (inactive)

**Q.** What about the GI50 (SK-MEL-28) of the same molecule?
**A.** > 10 µM (inactive)

**Q.** What about the GI50 (Hs-578T) of the same molecule?
**A.** > 10 µM (inactive)

**Q.** What about the GI50 (786-0) of the same molecule?
**A.** > 10 µM (inactive)

**Q.** What about the GI50 (BT-549) of the same molecule?
**A.** > 10 µM (inactive)

**Q.** What about the GI50 (PC-3) of the same molecule?
**A.** > 10 µM (inactive)

**Q.** And the GI50 (MCF7)?
**A.** > 10 µM (inactive)

**Q.** And the GI50 (IGROV-1)?
**A.** > 10 µM (inactive)

**Q.** What about the GI50 (SNB-75) of the same molecule?
**A.** > 10 µM (inactive)

**Q.** And the GI50 (HCT-15)?
**A.** > 10 µM

**Q.** And the GI50 (HL-60)?
**A.** > 10 µM (inactive)

**Q.** And the GI50 (NCI-H522)?
**A.** > 10 µM (inactive)

**Q.** And the GI50 (OVCAR-5)?
**A.** > 10 µM (inactive)

**Q.** What about the GI50 (U-251) of the same molecule?
**A.** > 10 µM (inactive)

**Q.** What about the GI50 (KM12) of the same molecule?
**A.** > 10 µM (inactive)

**Q.** And the GI50 (HCC 2998)?
**A.** > 10 µM (inactive)

**Q.** And the GI50 (TK-10)?
**A.** > 10 µM (inactive)

**Q.** What about the GI50 (SW-620) of the same molecule?
**A.** > 10 µM (inactive)

**Q.** What about the GI50 (CAKI-1) of the same molecule?
**A.** > 10 µM (inactive)

**Q.** What about the GI50 (SK-OV-3) of the same molecule?
**A.** > 10 µM (inactive)

**Q.** And the GI50 (MDA-MB-231)?
**A.** > 10 µM (inactive)

**Q.** And the GI50 (M14)?
**A.** > 10 µM (inactive)

**Q.** What about the GI50 (SK-MEL-5) of the same molecule?
**A.** > 10 µM (inactive)

**Q.** What about the GI50 (A549) of the same molecule?
**A.** > 10 µM (inactive)

**Q.** And the GI50 (SR)?
**A.** > 10 µM (inactive)

**Q.** What about the GI50 (HCT-116) of the same molecule?
**A.** > 10 µM (inactive)

**Q.** And the GI50 (SF-268)?
**A.** > 10 µM (inactive)

**Q.** What about the GI50 (SN12C) of the same molecule?
**A.** > 10 µM (inactive)

**Q.** What about the GI50 (RPMI-8226) of the same molecule?
**A.** > 10 µM (inactive)

**Q.** What about the GI50 (SF-295) of the same molecule?
**A.** > 10 µM (inactive)

**Q.** And the GI50 (K562)?
**A.** > 10 µM (inactive)

**Q.** What about the GI50 (MDA-N) of the same molecule?
**A.** > 10 µM (inactive)

**Q.** What about the GI50 (LOX IMVI) of the same molecule?
**A.** > 10 µM (inactive)

**Q.** What about the GI50 (HOP-92) of the same molecule?
**A.** > 10 µM (inactive)

**Q.** What about the GI50 (NCI-H23) of the same molecule?
**A.** > 10 µM (inactive)

**Q.** What about the GI50 (Malme-3M) of the same molecule?
**A.** > 10 µM (inactive)

**Q.** And the GI50 (NCI/ADR-RES)?
**A.** > 10 µM (inactive)

**Q.** What about the GI50 (UACC-257) of the same molecule?
**A.** > 10 µM (inactive)

**Q.** And the GI50 (UACC-62)?
**A.** > 10 µM (inactive)

**Q.** And the GI50 (MDA-MB-435)?
**A.** > 10 µM (inactive)

**Q.** What about the GI50 (DU-145) of the same molecule?
**A.** > 10 µM (inactive)

**Q.** And the GI50 (OVCAR-4)?
**A.** > 10 µM (inactive)

**Q.** What about the GI50 (T47D) of the same molecule?
**A.** > 10 µM (inactive)

**Q.** And the GI50 (HOP-62)?
**A.** > 10 µM (inactive)

**Q.** What about the GI50 (ACHN) of the same molecule?
**A.** > 10 µM (inactive)

**Q.** And the GI50 (OVCAR-8)?
**A.** > 10 µM (inactive)

**Q.** What about the GI50 (SNB-19) of the same molecule?
**A.** > 10 µM (inactive)

**Q.** And the GI50 (CCRF-CEM)?
**A.** > 10 µM (inactive)

**Q.** And the GI50 (OVCAR-3)?
**A.** > 10 µM (inactive)

**Q.** What about the GI50 (SF-539) of the same molecule?
**A.** > 10 µM (inactive)

**Q.** And the GI50 (COLO 205)?
**A.** > 10 µM (inactive)

**Q.** And the GI50 (MOLT-4)?
**A.** > 10 µM (inactive)
